{"source": "ChEMBL document CHEMBL3991949", "about": "“Inhibition of DCPS” (2009)", "key": {"m7GpppX diphosphatase [1]": {"target": "T1, m7GpppX diphosphatase (Mus musculus, UniProt Q9DAR7)", "T1 sequence (Q9DAR7 whole entry)": "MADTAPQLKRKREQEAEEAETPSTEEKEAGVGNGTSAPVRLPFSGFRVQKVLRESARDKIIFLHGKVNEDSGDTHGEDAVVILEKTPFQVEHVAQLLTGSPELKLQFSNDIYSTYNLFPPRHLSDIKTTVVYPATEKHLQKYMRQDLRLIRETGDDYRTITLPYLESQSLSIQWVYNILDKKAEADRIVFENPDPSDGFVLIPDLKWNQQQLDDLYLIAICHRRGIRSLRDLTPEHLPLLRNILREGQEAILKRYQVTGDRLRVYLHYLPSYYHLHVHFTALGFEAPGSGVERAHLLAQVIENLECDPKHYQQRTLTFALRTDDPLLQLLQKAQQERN", "assay": "Inhibition of DcpS in human SMN2 promoter driven mouse NSC-34 cells assessed as increase in SMN2 mRNA expression after 18 hrs by RT-PCR analysis"}, "Brain [2]": {"test_system": "Brain", "assay": "Drug uptake in brain of SMNdelta7 carrier mouse […] at 0.1 to 30 mg/kg/day administered orally beginning at PND04 for 5 days", "format": "ADME, organism-based", "details": "in vivo, po, 120 h"}, "Mus musculus [3]": {"test_system": "Mus musculus", "assay": "Induction in delay of onset of body mass loss in timed-pregnant SMNdelta7 carrier mouse prenatal dams at 3 mg/kg/day administered orally beginning at embryonic day 11.5 continued through birth and once the pups were born", "format": "functional"}, "Mus musculus [4]": {"test_system": "Mus musculus", "assay": "Induction in delay of onset of body mass loss in SMNdelta7 SMA mouse model at 3 mg/kg/day administered orally beginning at PND04, continued for duration of their lives by Kaplan-Meier plot method (reference value: 11.1 +/- 0.3 day)", "format": "functional"}, "Mus musculus [5]": {"test_system": "Mus musculus", "assay": "Increase in life span of SMNdelta7 SMA mouse model at 3 mg/kg/day administered orally beginning at PND04, continued for duration of their lives by Kaplan-Meier plot method relative to untreated control", "format": "functional"}, "Mus musculus [6]": {"test_system": "Mus musculus", "assay": "Effect on life span of SMNdelta7 SMA mouse model assessed as survival at 3 mg/kg/day administered orally on onset of motor neuron loss at PND09, continued for duration of their lives by Kaplan-Meier plot method (reference value: 14 +/- 0.4 day)", "format": "functional"}, "Mus musculus [7]": {"test_system": "Mus musculus", "assay": "Increase in SMN protein levels in spinal cord extracts isolated from SMNdelta7 SMA mouse model at 3 mg/kg/day administered orally beginning at PND04 for 5 days by immunoblot analysis relative to SMNdelta7 carrier mouse", "format": "functional"}, "Mus musculus [8]": {"test_system": "Mus musculus", "assay": "(§1) Increase in Smn promoter activity in forebrain extracts isolated from Smn knockout mouse containing LacZ:NeoR cassette inserted into mouse Smn exon 2A assessed as optimal effective dose administered orally beginning at PND04 for 5 days by beta-galactosidase light chemiluminescent reporter gene assay", "format": "functional"}, "Brain [9]": {"test_system": "Brain", "assay": "Drug level in fetal brain extracts isolated from timed-pregnant SMNdelta7 carrier mouse prenatal dams administered orally beginning at embryonic day 11.5 for 5 days by LC-MS-MS analysis", "format": "ADME, tissue-based", "details": "in vivo, po, 120 h"}, "Mus musculus [10]": {"test_system": "Mus musculus", "assay": "as §1, with “spinal cord” for “forebrain”", "format": "functional"}, "Mus musculus [11]": {"test_system": "Mus musculus", "assay": "Toxicity in SMNdelta7 carrier mouse assessed as adverse events at 0.1 to 30 mg/kg/day administered orally beginning at PND04 for 5 days", "format": "organism-based", "details": "in vivo, po, 120 h"}, "Mus musculus [12]": {"test_system": "Mus musculus", "assay": "Increase in life span of timed-pregnant SMNdelta7 carrier mouse prenatal dams at 3 mg/kg/day administered orally beginning at embryonic day 11.5 continued after birth (reference value: 13.3 +/- 0.6 day)", "format": "functional"}, "Mus musculus [13]": {"test_system": "Mus musculus", "assay": "Increase in SMN protein levels in spinal cord extracts isolated from SMNdelta7 SMA mouse model at 3 mg/kg/day administered orally beginning at PND04 for 5 days by immunoblot analysis", "format": "functional"}, "Mus musculus [14]": {"test_system": "Mus musculus", "assay": "Increase in life span of timed-pregnant SMNdelta7 carrier mouse prenatal dams at 3 mg/kg/day administered orally beginning at embryonic day 11.5 continued through birth and once the pups were born", "format": "functional"}, "Mus musculus [15]": {"test_system": "Mus musculus", "assay": "Induction in delay of onset of body mass loss in timed-pregnant SMNdelta7 carrier mouse prenatal dams at 3 mg/kg/day administered orally only during prenatal period", "format": "functional"}, "[16]": {"target": "T2, m7GpppX diphosphatase (Homo sapiens) (UniProt Q96C86)", "T2 sequence (whole entry)": "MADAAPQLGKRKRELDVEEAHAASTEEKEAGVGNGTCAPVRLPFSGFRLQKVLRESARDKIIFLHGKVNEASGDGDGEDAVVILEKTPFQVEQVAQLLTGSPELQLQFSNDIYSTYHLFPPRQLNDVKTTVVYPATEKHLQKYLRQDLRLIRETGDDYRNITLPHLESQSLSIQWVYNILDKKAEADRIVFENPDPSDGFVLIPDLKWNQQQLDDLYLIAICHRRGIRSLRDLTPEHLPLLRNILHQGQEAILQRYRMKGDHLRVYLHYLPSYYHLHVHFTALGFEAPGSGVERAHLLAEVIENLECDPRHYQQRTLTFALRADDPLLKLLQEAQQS", "assay": "Inhibition of recombinant flag-tagged DcpS (unknown origin) decapping activity assessed as hydrolysis of m7GpppG to m7G at 40 nM using unlabeled cap structure as substrate after 30 secs by PEI cellulose thin-layer chromatographic assay (reference value: 62%)", "set-up": "scale not given: the % may be the effect or the level left"}, "[17]": {"target": "T2, m7GpppX diphosphatase (Homo sapiens)", "assay": "Inhibition of recombinant flag-tagged DcpS (unknown origin) decapping activity assessed as hydrolysis of m7GpppG to m7G at 8 nM using unlabeled cap structure as substrate after 30 secs by PEI cellulose thin-layer chromatographic assay (reference value: 62%)", "set-up": "scale not given: the % may be the effect or the level left"}, "[18]": {"target": "T2, m7GpppX diphosphatase (Homo sapiens)", "assay": "Inhibition of recombinant flag-tagged DcpS (unknown origin) decapping activity assessed as hydrolysis of m7GpppG to m7G at 200 nM using unlabeled cap structure as substrate after 30 secs by PEI cellulose thin-layer chromatographic assay (reference value: 62%)", "set-up": "scale not given: the % may be the effect or the level left"}, "[19]": {"target": "T2, m7GpppX diphosphatase (Homo sapiens)", "assay": "Inhibition of recombinant flag-tagged DcpS (unknown origin) decapping activity assessed as hydrolysis of m7GpppG to m7G at 1.6 nM using unlabeled cap structure as substrate after 30 secs by PEI cellulose thin-layer chromatographic assay (reference value: 62%)", "set-up": "scale not given: the % may be the effect or the level left"}, "m7GpppX diphosphatase [20]": {"target": "T3, m7GpppX diphosphatase (Homo sapiens, UniProt Q96C86)", "T3 sequence (Q96C86 whole entry)": "T2 sequence (whole entry)", "assay": "Inhibition of recombinant flag-tagged DcpS (unknown origin) decapping activity assessed as reduction in hydrolysis of m7GpppG to m7G using unlabeled cap structure as substrate after 30 secs by PEI cellulose thin-layer chromatographic assay"}, "[21]": {"target": "T2, m7GpppX diphosphatase (Homo sapiens)", "assay": "Binding affinity to recombinant human N-terminal GST-tagged DcpS expressed in baculovirus-infected Sf9 insect cells at 100 nM after 90 mins in presence of [125I]-streptavidin by microarray assay", "details": "tested as the 125I-labelled form"}, "m7GpppX diphosphatase [22]": {"target": "T1, m7GpppX diphosphatase", "assay": "Inhibition of DcpS in human SMN2 promoter driven mouse NSC-34 cell lysate assessed as increase in SMN2 expression after 18 hrs by beta-lactamase reporter gene assay"}}, "note": "Active and inactive are the calls of the source. The calls are words filed in the database; no cut-off is given here."}
{"smiles": "Nc1nc(N)c2c(OCC3CCN(CC(F)(F)F)CC3)cccc2n1", "values": [{"measurement": "EC50", "setting": "m7GpppX diphosphatase [1]", "result": 223, "unit": "nM"}]}
{"smiles": "Nc1nc(N)c2c(OCC3CCN(Cc4ccccc4F)CC3)cccc2n1", "values": [{"measurement": "Drug uptake", "setting": "Brain [2]", "result": "Dose-dependent effect"}, {"measurement": "Activity", "setting": "Mus musculus [3]", "result": 15, "unit": "%"}, {"measurement": "Activity", "setting": "Mus musculus [4]", "result": 12, "unit": "days"}, {"measurement": "Activity", "setting": "Mus musculus [5]", "result": 21, "unit": "%"}, {"measurement": "Survival", "setting": "Mus musculus [6]", "result": 14.9, "unit": "days"}, {"measurement": "Activity", "setting": "Mus musculus [7]", "result": 25, "unit": "%"}, {"measurement": "Activity", "setting": "Mus musculus [8]", "result": 3, "unit": "mg/kg/day"}, {"measurement": "Drug uptake", "setting": "Brain [9]", "result": "Dose-dependent effect"}, {"measurement": "Activity", "setting": "Mus musculus [10]", "result": 3, "unit": "mg/kg/day"}, {"measurement": "Activity", "setting": "Mus musculus [11]", "result": "Non-Toxic"}, {"measurement": "Activity", "setting": "Mus musculus [12]", "result": 14.1, "unit": "days"}, {"measurement": "Activity", "setting": "Mus musculus [13]", "result": 70, "unit": "%"}, {"measurement": "Activity", "setting": "Mus musculus [14]", "result": 30, "unit": "%"}, {"measurement": "Activity", "setting": "Mus musculus [15]", "result": 10, "unit": "%"}]}
{"smiles": "C[n+]1cn([C@@H]2O[C@H](COP(=O)(O)OP(=O)([O-])OP(=O)(O)OC[C@H]3O[C@@H](n4cnc5c(=O)[nH]c(N)nc54)[C@H](O)[C@@H]3O)[C@@H](O)[C@H]2O)c2nc(N)nc(O)c21", "values": [{"measurement": "Activity", "setting": "[16]", "result": 24, "unit": "%"}, {"measurement": "Activity", "setting": "[17]", "result": 46, "unit": "%"}, {"measurement": "Activity", "setting": "[18]", "result": 7, "unit": "%"}, {"measurement": "Activity", "setting": "[19]", "result": 55, "unit": "%"}]}
{"smiles": "Nc1nc(N)c2c(OCC3CCN(c4ccccc4Cl)CC3)cccc2n1", "values": [{"measurement": "EC50", "setting": "m7GpppX diphosphatase [1]", "result": 795, "unit": "nM"}]}
{"smiles": "Cn1ccnc1CN1CCC(COc2cccc3nc(N)nc(N)c23)CC1", "values": [{"measurement": "EC50", "setting": "m7GpppX diphosphatase [1]", "result": 108, "unit": "nM"}]}
{"smiles": "Nc1nc(N)c2c(OCC3CCN(CC4CCNCC4)CC3)cccc2n1", "values": [{"measurement": "EC50", "setting": "m7GpppX diphosphatase [1]", "result": 921, "unit": "nM"}]}
{"smiles": "C[n+]1cn([C@@H]2O[C@H](COP(=O)(O)OP(=O)([O-])OP(=O)(O)OC[C@H]3O[C@@H](n4cnc5c(=O)[nH]c(N)nc54)[C@H](O)[C@@H]3O)[C@@H](O)[C@H]2O)c2nc(N)[nH]c(=O)c21", "values": [{"measurement": "IC50", "setting": "m7GpppX diphosphatase [20]", "result": 30, "unit": "nM"}]}
{"smiles": "CC(=O)Nc1nc(CN2CCC(COc3cccc4nc(N)nc(N)c34)CC2)cs1", "values": [{"measurement": "EC50", "setting": "m7GpppX diphosphatase [1]", "result": 2540, "unit": "nM"}]}
{"smiles": "Nc1nc(N)c2c(OCC3CCN(C(=O)c4cccc(I)c4)CC3)cccc2n1", "values": [{"measurement": "Activity", "setting": "[21]", "result": "Active"}, {"measurement": "EC50", "setting": "m7GpppX diphosphatase [22]", "result": 36, "unit": "nM"}]}
